The results in this text go back to patent US8796320B2, “1,3,4-Oxadiazole-2-carboxamide compound” (General Incorporated Association Pharma Valley Project …, priority 2009, dated 2014).

Assay [1] concerns STAT3. Description: STAT3 transcription inhibition test (reporter gene method). The format is cell-based. Conditions: Homo sapiens; compound at 100 μM; STAT3 reporter HeLa stable cell line, oncostatin M 10 ng/mL, 4 hours; read-out: STAT3 transcription inhibitory activity (%). How it is done:
The inhibition of STAT3 transcription was evaluated by using STAT3 reporter HeLa stable cell line (Panomics Inc., catalog No. RC0003), a cell line for the reporter gene method, and performing the following method according to the appendix included therein.
STAT3, reporter HeLa stable cell line subcultured and maintained in a Dulbecco's modified Eagle's medium (DMEM) containing 10% fetal bovine serum, 100 units/mL penicillin, and 100 μg/mL streptomycin was inoculated at a concentration of 40000 cells/well to a 96-well plate (white) and attached to the plate by overnight incubation at 37° C. under 5% CO2. After addition of each evaluation compound adjusted to various concentrations (adjusted with a DMSO solution), the cells were precultured for 1 hour. Then, oncostatin M for activating STAT3 was added at a final concentration 10 ng/mL, and the cells were further cultured at 37° C. under 5% CO2 for 4 hours. Luciferase activity derived from the cells was determined using Steady-Glo Luciferase Assay System (Promega Corp.), and STAT3 transcriptional activity scores were calculated according to the following formula: STAT3 transcriptional activity score (%)=100×(Lchem−L0)/(LDMSO−L0) • L0: luminescence intensity obtained without stimulation with oncostatin M • Lchem: luminescence intensity obtained by the addition of a test sample • LDMSO: luminescence intensity obtained by the addition of only a solvent for dissolving a test sample
The test results were indicated in the rate of inhibition of STAT3 transcription by each compound at a concentration of 100 μM.
(Reporter assays use an easily measured gene product as a stand-in for the process of interest.)

Assay [2] has as its system human lymphoma SCC-3 cells. Description: Evaluation using human lymphoma-transplanted nude mice. In kind it is in vivo, nude mouse. Particulars: 80 mg/kg orally once a day for 5 days, p < 0.05. How it is done:
1×10^6 human lymphoma SCC-3 cells (containing Matrigel) were subcutaneously transplanted to the flank part of each 6-week-old male nude mouse (BALB/cA-nu/nu, CLEA Japan, Inc.). After the transplantation, the tumor volumes [major axis (mm) and minor axis (mm)] of the SCC-3 cancer-bearing mice were measured using an electronic vernier caliper (CD-10, Mitutoyo Corp.), and tumor volumes [mm^3: (major axis)×(minor axis)^2/2] were calculated. SCC-3 cancer-bearing mice whose tumor volume reached 50 to 300 mm^3 were selected and divided based on the tumor volumes into groups each containing 5 individuals. A test compound was suspended in a 0.5% methylcellulose solution and orally administered at a dose of 0.01 mL/g body weight once a day for 5 days (Day 0 (administration initiation day) to Day 4). To a control group, none was administered. The tumor volumes of the SCC-3 cancer-bearing mice were measured every day from the initiation of test compound administration to evaluate antitumor effect. The antitumor effect was assessed by calculating T/C (%) values according to the following formula: • V: tumor volume on every assay day • V0: tumor volume on the administration initiation day (V/V0 of the test compound group)/(V/V0 of the control group)×100
Validity determination criteria for this system adopted the method of Inaba, et al. (Cancer, 1989, 64, 1577-1582).

The subject of assay [3] is MDA-MB-468. Description: MDA-MB-468 cell growth inhibitory activity. In kind it is cell-based. Particulars: Homo sapiens; compound at 20 μM; MDA-MB-468, 72 hours. How it is done:
MDA-MB-468 diluted with phenol red-free DMEM/F-12 (GIBCO; 10% FBS, 20 units/ml penicillin/streptomycin) was inoculated at a concentration of 2000 cells/well to a 96-well plate (Greiner Bio-One) and cultured overnight at 37° C. in the presence of 5% CO2. Then, a test sample solution (containing 2 (v/v)% DMSO) adjusted to 10 μM was added thereto at a concentration of 10 μL/well and contacted with the cells at 37° C. for 72 hours in the presence of 5% CO2. Each well was washed three times with a medium. Then, after addition of 100 μL/well of a medium and 20 μL/well of CellTiter 96 AQueous, One Solution Reagent (Promega Corp.), the cells were incubated at 37° C. for 2 hours in the presence of 5% CO2. Absorbance at 495 nm was measured using Multiplate reader (Molecular Devices, Inc.), and the rate of inhibition of cell growth was calculated according to the following formula: Rate of inhibition of cell growth (%)=100−100×(Abschem−bkgd)/(AbsDMSO−bkgd) • Abschem: absorbance obtained by the addition of a test sample • AbsDMSO: absorbance obtained by the addition of only a solvent for test sample dissolution • bkgd: absorbance obtained by the addition of CellTiter 96 AQueous One Solution Reagent to a medium for cell culture
The test results were indicated in the rate of inhibition of cell growth by each compound at a concentration of 20 μM.

Assay [4] deals with Human lymphoma SCC-3 cells. Put plainly: SCC-3 cell growth inhibition test (MTT method). In kind it is cell-based. Conditions: 72-hour culture. How it is done: Human lymphoma SCC-3 cells purchased from Japan Health Sciences Foundation were cultured for […] at a density of 5000 cells/well in a 96-well plate with RPMI1640 (Sigma-Aldrich Corp.) containing 10% fetal bovine serum (FBS; GIBCO) as a culture medium.
Simultaneously with cell inoculation, each test compound diluted to various concentrations with an RPMI medium was added to each well. After 72-hour culture, cell growth inhibitory activity was determined by the MTT method (J. Immunol. Methods, 1993, 65, 581-593) using a microplate reader (NJ-2300, BioTek Instruments, Inc.).
The test results were indicated in a concentration (IC50) at which 50% cell growth was inhibited.
On the technique in general: Tetrazolium dyes change colour on reduction, which living cells bring about.

The structures appear in SMILES notation. Bounds are passed on as bounds.

For `CC(C)(C)c1ccc(-c2cccc(C(=O)Nc3nnc(-c4ccco4)o3)c2)cc1` [Compound Ia-14, 4′-tert-Butyl-N-[5-(2-furyl)-1,3,4-oxadiazol-2-yl]-3-biphenylcarboxamide], the inhibition at 100 µM in assay [1] was 57%. Further, the “T/C (%)” value in assay [2] (day 11 after administration) is on record as 57%.
Regarding `CCCCOC(=O)c1ccc(-c2cccc(C(=O)Nc3nnc(-c4ccco4)o3)c2)cc1` [Compound Ia-23, 4′-n-Butoxycarbonyl-N-[5-(2-furyl)-1,3,4-oxadiazol-2-yl]-3-biphenylcarboxamide], the “T/C (%)” value in assay [2] (day 6 after administration) is given as 55%.
The term IC50 denotes the concentration at which inhibition is half-maximal. Regarding `O=C(Nc1nnc(-c2ccco2)o1)c1cccc(-c2ccc(-c3ccc4ccccc4c3)cc2)c1` [Compound Ia-83, N-[5-(2-Furyl)-1,3,4-oxadiazol-2-yl]-4′-(2-naphthyl)-3-biphenylcarboxamide], in assay [1], the inhibition at 100 µM came to 75%. In assay [3], this molecule had an inhibition at 20 µM of 71%. Moreover, the IC50 in assay [4] was < 100 nM.
Regarding `O=C(Nc1nnc(-c2ccco2)o1)c1cccc(-c2ccc(C3CCCCC3)cc2)c1` [Compound Ia-84, 4′-Cyclohexyl-N-[5-(2-furyl)-1,3,4-oxadiazol-2-yl]-3-biphenylcarboxamide], the inhibition at 100 µM in assay [1] came to 74%. Further, in assay [3], the inhibition at 20 µM was 68%. Besides, in assay [4], the IC50 is < 100 nM.
As for `O=C(Nc1nnc(-c2ccco2)o1)c1cc(-c2ccccc2)nc2nc(N3CCCCC3)sc12` [Compound Ib-1, N-[5-(2-Furyl)-1,3,4-oxadiazol-2-yl]-5-phenyl-2-piperidino-7-thiazolo[4,5-b]pyridinecarboxamide], the inhibition at 100 µM in assay [1] is > 100%. Besides, the inhibition at 20 µM in assay [3] turned out to be 96%. For the same molecule, in assay [4], the midpoint of inhibition, the IC50, lay at 520 nM. Moreover, the “T/C (%)” value in assay [2] (day 18 after administration) came out at 52%.
Consider `COc1ccc(-c2cc(C(=O)Nc3nnc(-c4ccco4)o3)c3sc(N4CCCCC4)nc3n2)cc1OC` [Compound Ib-4, N-[5-(2-Furyl)-1,3,4-oxadiazol-2-yl]-5-(3,4-dimethoxyphenyl)-2-piperidino-7-thiazolo[4,5-b]pyridinecarboxamide], for which the inhibition at 100 µM in assay [1] was > 100%. Also, in assay [3], the inhibition at 20 µM was 78%. For the same molecule, in assay [4], the IC50 is 700 nM.
